Test results taken from patent publication EP3628672A1 (priority 2018, dated 2020).
Like-named read-outs stand apart in the source and are kept apart here.

Assays:
[1] = biological target: T1, purified LasB protein from P. aeruginosa (Pseudomonas aeruginosa, UniProt P14756); test: Fluorometric assay to determine Ki (Abz-Ala-Gly-Leu-Ala-p-Nitro-Benzyl-Amide substrate); assay type: biochemical
T1 construct: purchased Merck or Charles River Laboratories
Procedure, shortened: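 Purified P. aeruginosa LasB (10–140 ng/ml) with 250 µM Abz-Ala-Gly-Leu-Ala-p-nitrobenzylamide in 50 mM Tris-HCl pH 7.4, 2.5 mM CaCl2, 0.01% Triton X100, 37 °C; hydrolysis fluorescence (Ex 340/Em 415 nm) followed over 30 min, inhibitor 0.0016–200 µM. Ki = IC50/(1+[S]/Km), Km 214 µM.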

LasB = biological target: T2, LasB (Pseudomonas aeruginosa, UniProt P14756); test: Elastin assay to determine % inhibition (Elastin Congo-Red, dialysed culture supernatant); assay type: biochemical, P. aeruginosa PAO1; conditions: read-out: Elastin hydrolysis % inhibition @ 50 / 25 µM inhibitor concentration
T2 construct: uses as source of enzyme dialysed supernatant from P. aeruginosa PAO1; endogenous in cells; host or cells: P. aeruginosa PAO1 culture supernatant, filtered and dialysed
Procedure, shortened: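 Enzyme source was dialysed PAO1 culture supernatant (50 mM Tris-HCl pH 7.4, 2.5 mM CaCl2), mixed with Elastin Congo-Red and 0.01% Triton X-100. Compound was routinely 50 to 1.56 µM, incubated overnight at 37 °C with shaking. Dye release at OD495 gave % inhibition relative to DMSO and no-enzyme controls.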

T2 sequence (P14756 198-498): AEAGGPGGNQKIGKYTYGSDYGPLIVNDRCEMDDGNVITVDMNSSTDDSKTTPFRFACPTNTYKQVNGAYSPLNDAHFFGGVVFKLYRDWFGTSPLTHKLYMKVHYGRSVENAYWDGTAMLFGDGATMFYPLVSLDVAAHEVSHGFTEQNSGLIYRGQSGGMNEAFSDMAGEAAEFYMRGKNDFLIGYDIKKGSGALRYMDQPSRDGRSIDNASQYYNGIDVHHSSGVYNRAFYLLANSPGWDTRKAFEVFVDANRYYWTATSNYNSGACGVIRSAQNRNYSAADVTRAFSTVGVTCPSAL
T1 sequence (P14756 198-498): as above

| SMILES | Ki [1] [nM] | inhibition at 25 µM (LasB) [%] | Ki ([1]; Ki calculated from IC50, [S] = 250 µM, Km = 214 µM, 37°C, pH 7.4) [nM] |
| --- | --- | --- | --- |
| CN1CCN(CCCn2cc(-c3csc(CNC(=O)C4(CC(=O)O)Cc5ccccc5C4)n3)cn2)CC1 [Example 108, 2-[2-[[4-[1-[3-(4-methylpiperazin-1-yl)propyl]pyrazol-4-yl]thiazol-2-yl]methylcarbamoyl]indan-2-yl]acetic acid] | 50 to 200 | 60 to 75 |  |
| O=C(O)CC1(C(=O)NCc2nc(-c3cnn(CCCN4CCCOCC4)c3)cs2)Cc2ccccc2C1 [Example 109, 2-[2-[[4-[1-[3-(1,4-oxazepan-4-yl)propyl]pyrazol-4-yl]thiazol-2-yl]methylcarbamoyl]indan-2-yl]acetic acid] | 50 to 200 | 60 to 75 |  |
| COC1CCN(CCCn2cc(-c3csc(CNC(=O)C4(CC(=O)O)Cc5ccccc5C4)n3)cn2)CC1 [Example 110, 2-[2-[[4-[1-[3-(4-methoxy-1-piperidyl)propyl]pyrazol-4-yl]thiazol-2-yl]methylcarbamoyl]indan-2-yl]acetic acid] | 50 to 200 | 60 to 75 |  |
| CN1CCN(C(=O)N2CCN(CCCn3cc(-c4csc(CNC(=O)C5(CC(=O)O)Cc6ccccc6C5)n4)cn3)CC2)CC1 [Example 112, 2-[2-[[4-[1-[3-[4-(4-methylpiperazine-1-carbonyl)piperazin-1-yl]propyl]pyrazol-4-yl]thiazol-2-yl]methylcarbamoyl]indan-2-yl]acetic acid] | 50 to 200 | 60 to 75 |  |
| CN1CCC(C(=O)N2CCN(CCCn3cc(-c4csc(CNC(=O)C5(CC(=O)O)Cc6ccccc6C5)n4)cn3)CC2)CC1 [Example 114, 2-[2-[[4-[1-[3-[4-(1-methylpiperidine-4-carbonyl)piperazin-1-yl]propyl]pyrazol-4-yl]thiazol-2-yl]methylcarbamoyl]indan-2-yl]acetic acid] | 50 to 200 | 60 to 75 |  |
| CN1CCN(CCCn2cc(-c3csc(CNC(=O)C4(CC(=O)O)Cc5ccccc5C4)n3)cn2)CC1=O [Example 116, 2-[2-[[4-[1-[3-(4-methyl-3-oxo-piperazin-1-yl)propyl]pyrazol-4-yl]thiazol-2-yl]methylcarbamoyl]indan-2-yl]acetic acid] | 50 to 200 | 60 to 75 |  |
| CC(=O)N1CCN(CCn2cc(-c3csc(CNC(=O)C4(CC(=O)O)Cc5ccccc5C4)n3)cn2)CC1 [Example 119, 2-[2-[[4-[1-[2-(4-acetylpiperazin-1-yl)ethyl]pyrazol-4-yl]thiazol-2-yl]methylcarbamoyl]indan-2-yl]acetic acid] | 50 to 200 | 60 to 75 |  |
| C[n+]1ccc(Cn2cc(-c3csc(CNC(=O)C4(CC(=O)[O-])Cc5ccccc5C4)n3)cn2)cc1 [Example 120, 2-[2-[[4-[1-[(1-methylpyridin-1-ium-4-yl)methyl]pyrazol-4-yl]thiazol-2-yl]methylcarbamoyl]indan-2-yl]acetate] | 50 to 200 | 60 to 75 |  |
| COc1ccc(-c2csc(CNC(=O)C3(CC(=O)O)Cc4ccccc4C3)n2)cc1S(=O)(=O)N1CCC(N(C)C)CC1 [Example 121, 2-[2-[[4-[3-[[4-(dimethylamino)-1-piperidyl]sulfonyl]-4-methoxy-phenyl]thiazol-2-yl]methylcarbamoyl]indan-2-yl]acetic acid] | 50 to 200 | 60 to 75 |  |
| COc1ccc(-c2csc(CNC(=O)C3(CC(=O)O)Cc4ccccc4C3)n2)cc1S(=O)(=O)N1CCN(C)CC1 [Example 122] |  | > 75 | 50 to 200 |
| COc1ccc(-c2csc(CNC(=O)C3(CC(=O)O)Cc4cc(F)c(F)cc4C3)n2)cc1S(=O)(=O)N1CCC(N(C)C)CC1 [Example 123, 2-[2-[[4-[3-[[4-(dimethylamino)-1-piperidyl]sulfonyl]-4-methoxy-phenyl]thiazol-2-yl]methylcarbamoyl]-5,6-difluoro-indan-2-yl]acetic acid] | < 50 | 60 to 75 |  |
| COc1ccc(-c2csc(CNC(=O)C3(CC(=O)[O-])Cc4cc(F)c(F)cc4C3)n2)cc1S(=O)(=O)N1CCC([N+](C)(C)C)CC1 [Example 124, 2-[5,6-difluoro-2-[[4-[4-methoxy-3-[[4-(trimethylammonio)-1-piperidyl]sulfonyl]phenyl]thiazol-2-yl]methylcarbamoyl]indan-2-yl] acetate] | 50 to 200 | 60 to 75 |  |
| COc1ccc(S(=O)(=O)N2CCC(N(C)C)CC2)cc1-c1csc(CNC(=O)C2(CC(=O)O)Cc3cc(F)c(F)cc3C2)n1 [Example 125, 2-[2-[[4-[5-[[4-(dimethylamino)-1-piperidyl]sulfonyl]-2-methoxy-phenyl]thiazol-2-yl]methylcarbamoyl]-5,6-difluoro-indan-2-yl]acetic acid] | 50 to 200 | 10 to 60 |  |
| COc1ccc(S(=O)(=O)N2CCC([N+](C)(C)C)CC2)cc1-c1csc(CNC(=O)C2(CC(=O)[O-])Cc3cc(F)c(F)cc3C2)n1 [Example 126, 2-[5,6-difluoro-2-[[4-[2-methoxy-5-[[4-(trimethylammonio)-1-piperidyl]sulfonyl]phenyl]thiazol-2-yl]methylcarbamoyl]indan-2-yl]acetate] | 50 to 200 | 60 to 75 |  |
| CN1CCN(S(=O)(=O)c2cccc(-c3csc(CNC(=O)C4(CC(=O)O)Cc5ccccc5C4)n3)c2)CC1 [Example 127, 2-[2-[[4-[3-(4-methylpiperazin-1-yl)sulfonylphenyl]thiazol-2-yl]methylcarbamoyl]indan-2-yl]acetic acid] | 50 to 200 | > 75 |  |
| C[N+]1(C)CCN(S(=O)(=O)c2cccc(-c3csc(CNC(=O)C4(CC(=O)[O-])Cc5ccccc5C4)n3)c2)CC1 [Example 128, 2-[2-[[4-[3-(4,4-dimethylpiperazin-4-ium-1-yl)sulfonylphenyl]thiazol-2-yl]methylcarbamoyl]indan-2-yl]acetate] | 200 to 10000 | 10 to 60 |  |
| CN(C)CCNS(=O)(=O)c1cccc(-c2csc(CNC(=O)C3(CC(=O)O)Cc4ccccc4C3)n2)c1 [Example 129, 2-[2-[[4-[3-[2-(dimethylamino)ethylsulfamoyl]phenyl]thiazol-2-yl]methylcarbamoyl]indan-2-yl]acetic acid] | 200 to 10000 | 60 to 75 |  |
| CN1CCN(S(=O)(=O)c2ccc(-c3csc(CNC(=O)C4(CC(=O)O)Cc5ccccc5C4)n3)cc2)CC1 [Example 130, 2-[2-[[4-[4-(4-methylpiperazin-1-yl)sulfonylphenyl]thiazol-2-yl]methylcarbamoyl]indan-2-yl]acetic acid] | 50 to 200 | 60 to 75 |  |
| CN1CCN(S(=O)(=O)c2cc(-c3csc(CNC(=O)C4(CC(=O)O)Cc5ccccc5C4)n3)ccc2OCCN2CCOCC2)CC1 [Example 132, 2-[2-[[4-[3-(4-methylpiperazin-1-yl)sulfonyl-4-(2-morpholinoethoxy)phenyl]thiazol-2-yl]methylcarbamoyl]indan-2-yl]acetic acid] | < 50 | > 75 |  |
| CN1CCN(S(=O)(=O)c2cc(-c3csc(CNC(=O)C4(CC(=O)O)Cc5ccccc5C4)n3)ccc2OCCCN2CCOCC2)CC1 [Example 133, 2-[2-[[4-[3-(4-methylpiperazin-1-yl)sulfonyl-4-(3-morpholinopropoxy)phenyl]thiazol-2-yl]methylcarbamoyl]indan-2-yl]acetic acid] | < 50 | 60 to 75 |  |
| CN(C)C1CCN(S(=O)(=O)c2cc(-c3csc(CNC(=O)C4(CC(=O)O)Cc5cc(F)c(F)cc5C4)n3)ccc2OCCN2CCOCC2)CC1 [Example 134, 2-[2-[[4-[3-[[4-(dimethylamino)-1-piperidyl]sulfonyl]-4-(2-morpholinoethoxy)phenyl]thiazol-2-yl]methylcarbamoyl]-5,6-difluoro-indan-2-yl]acetic acid] | 50 to 200 | 60 to 75 |  |
| CS(=O)(=O)c1cc(-c2csc(CNC(=O)C3(CC(=O)O)Cc4ccccc4C3)n2)ccc1OCCN1CCOCC1 [Example 135, 2-[2-[[4-[3-methylsulfonyl-4-(2-morpholinoethoxy)phenyl]thiazol-2-yl]methylcarbamoyl]indan-2-yl]acetic acid] | < 50 | > 75 |  |
| C[N+]1(CCOc2ccc(-c3csc(CNC(=O)C4(CC(=O)[O-])Cc5ccccc5C4)n3)cc2S(C)(=O)=O)CCOCC1 [Example 136, 2-[2-[[4-[4-[2-(4-methylmorpholin-4-ium-4-yl)ethoxy]-3-methylsulfonyl-phenyl]thiazol-2-yl]methylcarbamoyl]indan-2-yl]acetate] | 50 to 200 | 60 to 75 |  |
| COc1ccc(-c2csc(CNC(=O)C3(CC(=O)O)Cc4ccccc4C3)n2)cc1C(=O)N1CCC(N(C)C)CC1 [Example 137, 2-[2-[[4-[3-[4-(dimethylamino)piperidine-1-carbonyl]-4-methoxy-phenyl]thiazol-2-yl]methylcarbamoyl]indan-2-yl]acetic acid] | 50 to 200 | 10 to 60 |  |
| COc1ccc(-c2csc(CNC(=O)C3(CC(=O)[O-])Cc4ccccc4C3)n2)cc1C(=O)N1CCC([N+](C)(C)C)CC1 [Example 138, 2-[2-[[4-[4-methoxy-3-[4-(trimethylammonio)piperidine-1-carbonyl]phenyl]thiazol-2-yl]methylcarbamoyl]indan-2-yl]acetate] | 200 to 10000 | 10 to 60 |  |
